Assay results published in patent US9487749B2 (priority 2009, dated 2016).
Values joined by “and” are separate entries in the source; they are usually repeats but may differ in a detail not shown here. Equal entries are not always repeated.

How the values were obtained:
[1] = tested on: Bifidobacterium bifidum ATCC #29521; assay: Bifidobacterium bifidum growth in media fortified with MSM, 96 hours; type: cell-based
[2] = tested on: Lactobacillus acidophilus; assay: Lactobacillus acidophilus milk growth in simulated gastric acid supplemented with MSM; type: cell-based; details: for Log Growth of L. acidophilus in milk average / Log Growth of L. acidophilus in milk in duplicate: 5% MSM, simulated gastric acid pH 1.2

CS(C)(=O)=O [MSM, Methylsulfonylmethane]
Log Growth of Bifidobacteruim bifidum in Media Fortified with MSM ([1]; 0.125% MSM, Hr 0): 1.12 log
Log Growth of Bifidobacteruim bifidum in Media Fortified with MSM ([1]; 0.125% MSM, Hr 8): 2.89 log
Log Growth of Bifidobacteruim bifidum in Media Fortified with MSM ([1]; 0.125% MSM, Hr 16): 7.85 log
Log Growth of Bifidobacteruim bifidum in Media Fortified with MSM ([1]; 0.125% MSM, Hr 24): 9.06 log
Log Growth of Bifidobacteruim bifidum in Media Fortified with MSM ([1]; 0.125% MSM, Hr 32): 11.45 log
Log Growth of Bifidobacteruim bifidum in Media Fortified with MSM ([1]; 0.125% MSM, Hr 40): 10.80 log
Log Growth of Bifidobacteruim bifidum in Media Fortified with MSM ([1]; 0.125% MSM, Hr 48): 8.22 log
Log Growth of Bifidobacteruim bifidum in Media Fortified with MSM ([1]; 0.125% MSM, Hr 56): 7.25 log
Log Growth of Bifidobacteruim bifidum in Media Fortified with MSM ([1]; 0.125% MSM, Hr 64): 8.86 log
Log Growth of Bifidobacteruim bifidum in Media Fortified with MSM ([1]; 0.125% MSM, Hr 72): 6.59 log
Log Growth of Bifidobacteruim bifidum in Media Fortified with MSM ([1]; 0.125% MSM, Hr 80): 9.12 log
Log Growth of Bifidobacteruim bifidum in Media Fortified with MSM ([1]; 0.125% MSM, Hr 88): 9.12 log
Log Growth of Bifidobacteruim bifidum in Media Fortified with MSM ([1]; 0.125% MSM, Hr 96): <6.00 log
logs higher than the maximum of the control ([1]; 0.5% MSM): 0.5 logs
logs higher than the control ([1]; 0.5% MSM, hour 96): approximately 2 logs
logs of growth ([1]; 0.5% MSM, hour 96): 8.82 logs
Log Growth of Bifidobacteruim bifidum in Media Fortified with MSM ([1]; 0.5% MSM, Hr 0): 1.00 log
Log Growth of Bifidobacteruim bifidum in Media Fortified with MSM ([1]; 0.5% MSM, Hr 8): 2.84 log
Log Growth of Bifidobacteruim bifidum in Media Fortified with MSM ([1]; 0.5% MSM, Hr 16): 7.45 log
Log Growth of Bifidobacteruim bifidum in Media Fortified with MSM ([1]; 0.5% MSM, Hr 24): 8.81 log
Log Growth of Bifidobacteruim bifidum in Media Fortified with MSM ([1]; 0.5% MSM, Hr 32): 11.22 log
Log Growth of Bifidobacteruim bifidum in Media Fortified with MSM ([1]; 0.5% MSM, Hr 40): 12.09 log
Log Growth of Bifidobacteruim bifidum in Media Fortified with MSM ([1]; 0.5% MSM, Hr 48): 9.39 log
Log Growth of Bifidobacteruim bifidum in Media Fortified with MSM ([1]; 0.5% MSM, Hr 56): 9.51 log
Log Growth of Bifidobacteruim bifidum in Media Fortified with MSM ([1]; 0.5% MSM, Hr 64): 10.34 log
Log Growth of Bifidobacteruim bifidum in Media Fortified with MSM ([1]; 0.5% MSM, Hr 72): 8.35 log
Log Growth of Bifidobacteruim bifidum in Media Fortified with MSM ([1]; 0.5% MSM, Hr 80): 10.38 log
Log Growth of Bifidobacteruim bifidum in Media Fortified with MSM ([1]; 0.5% MSM, Hr 88): 9.70 log
Log Growth of Bifidobacteruim bifidum in Media Fortified with MSM ([1]; 0.5% MSM, Hr 96): 8.82 log
logs of growth (estimated, outside the countable range) ([1]; 1% MSM, Hour 96): less than 6 logs
Log Growth of Bifidobacteruim bifidum in Media Fortified with MSM ([1]; 1% MSM, Hr 0): 1.00 log
Log Growth of Bifidobacteruim bifidum in Media Fortified with MSM ([1]; 1% MSM, Hr 8): 2.73 log
Log Growth of Bifidobacteruim bifidum in Media Fortified with MSM ([1]; 1% MSM, Hr 16): 7.73 log
Log Growth of Bifidobacteruim bifidum in Media Fortified with MSM ([1]; 1% MSM, Hr 24): 8.81 log
Log Growth of Bifidobacteruim bifidum in Media Fortified with MSM ([1]; 1% MSM, Hr 32): 11.49 log
Log Growth of Bifidobacteruim bifidum in Media Fortified with MSM ([1]; 1% MSM, Hr 40): 11.19 log
Log Growth of Bifidobacteruim bifidum in Media Fortified with MSM ([1]; 1% MSM, Hr 48): 10.43 log
Log Growth of Bifidobacteruim bifidum in Media Fortified with MSM ([1]; 1% MSM, Hr 56): 10.57 log
Log Growth of Bifidobacteruim bifidum in Media Fortified with MSM ([1]; 1% MSM, Hr 64): 10.66 log
Log Growth of Bifidobacteruim bifidum in Media Fortified with MSM ([1]; 1% MSM, Hr 72): 8.34 log
Log Growth of Bifidobacteruim bifidum in Media Fortified with MSM ([1]; 1% MSM, Hr 80): 9.43 log
Log Growth of Bifidobacteruim bifidum in Media Fortified with MSM ([1]; 1% MSM, Hr 88): 10.41 log
Log Growth of Bifidobacteruim bifidum in Media Fortified with MSM ([1]; 1% MSM, Hr 96): <6.00 log
log increase of growth ([1]; 1% MSM, listed as order: Hour 80, Hour 88): 1 log
extension of the stationary phase ([1]; 5% MSM): 40 h
logs lower than the control ([1]; 5% MSM, Hour 48): 0.7 logs
Log Growth of Bifidobacteruim bifidum in Media Fortified with MSM ([1]; 5% MSM, Hr 0): 1.12 log
Log Growth of Bifidobacteruim bifidum in Media Fortified with MSM ([1]; 5% MSM, Hr 8): 2.04 log
Log Growth of Bifidobacteruim bifidum in Media Fortified with MSM ([1]; 5% MSM, Hr 16): 6.10 log
Log Growth of Bifidobacteruim bifidum in Media Fortified with MSM ([1]; 5% MSM, Hr 24): 8.43 log
Log Growth of Bifidobacteruim bifidum in Media Fortified with MSM ([1]; 5% MSM, Hr 32): 11.13 log
Log Growth of Bifidobacteruim bifidum in Media Fortified with MSM ([1]; 5% MSM, Hr 40): 11.78 log
Log Growth of Bifidobacteruim bifidum in Media Fortified with MSM ([1]; 5% MSM, Hr 48): 10.70 log
Log Growth of Bifidobacteruim bifidum in Media Fortified with MSM ([1]; 5% MSM, Hr 56): 10.59 log
Log Growth of Bifidobacteruim bifidum in Media Fortified with MSM ([1]; 5% MSM, Hr 64): 14.32 log
Log Growth of Bifidobacteruim bifidum in Media Fortified with MSM ([1]; 5% MSM, Hr 72): 8.65 log
Log Growth of Bifidobacteruim bifidum in Media Fortified with MSM ([1]; 5% MSM, Hr 80): 12.20 log
Log Growth of Bifidobacteruim bifidum in Media Fortified with MSM ([1]; 5% MSM, Hr 88): 12.31 log
Log Growth of Bifidobacteruim bifidum in Media Fortified with MSM ([1]; 5% MSM, Hr 96): 9.60 log
log increase of growth ([1]; […] MSM, Hour 88): 1 log
logs higher than the maximum of the control ([1]; […] MSM, maximum): 0.72 logs
Log Growth of Bifidobacteruim bifidum in Media Fortified with MSM ([1]; […] MSM, Hr 96): <6.00 log
logs higher in growth rate compared to the control ([1]; […] MSM, listed as order: hour 40, Hour 56 to hour 72): 0.7 logs
maximum growth reached before the control ([1]; all MSM concentrations (hour 32 vs hour 48)): 16 h
increase in log growth from previous time point ([2]; 5.0% MSM, 24 hours): 0.23 logs
decrease in log growth from previous time point ([2]; 5.0% MSM, Hour 48): 0.33 logs
Log Growth of L. acidophilus in milk average ([2]; hour 0): 0.41 log
Log Growth of L. acidophilus in milk average ([2]; hour 3): 0.41 log
Log Growth of L. acidophilus in milk in duplicate ([2]; hour 6): 0.82 log and 1 log
Log Growth of L. acidophilus in milk average ([2]; hour 6): 0.91 log
Log Growth of L. acidophilus in milk in duplicate ([2]; hour 9): 0.52 log
Log Growth of L. acidophilus in milk average ([2]; hour 9): 0.52 log
Log Growth of L. acidophilus in milk average ([2]; hour 12): 1.10 log
Log Growth of L. acidophilus in milk in duplicate ([2]; hour 15): 1.43 log
Log Growth of L. acidophilus in milk average ([2]; hour 15): 1.43 log
Log Growth of L. acidophilus in milk in duplicate ([2]; hour 24): 1.67 log and 1.64 log
